Test results published in US12252524B2, “GIP/GLP1 co-agonist compounds” (Eli Lilly and Company, priority 2018, dated 2025).
Numbered stars: 1 amine (or outer) side, 2 acyl side, 3 side chain; on linkers, the order of the positions; unused ones are H or OH. Square brackets hold non-standard residues; d marks the D form. Side chains are listed from the residue outwards. Peptide text beside a SMILES is read from it. * marks the point of attachment. C20 diacid = O=C(O)CCCCCCCCCCCCCCCCCCC(=O)*; C18 diacid = O=C(O)CCCCCCCCCCCCCCCCC(=O)*; γGlu = O=C(O)[C@H](CCC(=O)[*:2])N[*:1]; αMeL = CC(C)C[C@](C)(N)C(=O)O; AEEA = NCCOCCOCC(=O)O; Aib = CC(C)(N)C(=O)O

Legend:
human GIP receptor = target: T1, human GIP receptor (Homo sapiens, UniProt P48546); assay: [125I]-GIP binding (SPA), human GIP receptor; conditions: read-out: hGIPR Ki, nM (SEM, n)
T1 construct: expressed in transfected cells; crude membranes
T1 sequence (P48546 22-466): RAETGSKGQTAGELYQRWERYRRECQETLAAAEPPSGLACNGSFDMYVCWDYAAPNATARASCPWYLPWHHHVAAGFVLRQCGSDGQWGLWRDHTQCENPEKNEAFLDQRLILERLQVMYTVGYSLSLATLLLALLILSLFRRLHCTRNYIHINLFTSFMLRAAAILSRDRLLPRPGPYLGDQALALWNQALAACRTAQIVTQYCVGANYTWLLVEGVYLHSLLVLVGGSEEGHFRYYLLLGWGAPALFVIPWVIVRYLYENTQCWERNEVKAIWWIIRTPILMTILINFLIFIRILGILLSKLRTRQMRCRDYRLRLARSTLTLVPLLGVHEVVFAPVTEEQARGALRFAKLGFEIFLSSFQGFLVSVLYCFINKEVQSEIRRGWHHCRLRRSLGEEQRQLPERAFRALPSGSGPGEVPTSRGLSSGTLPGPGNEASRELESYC

[1] = target: human GLP-1 receptor (GLP-1R) (Homo sapiens, UniProt P43220); assay: cAMP pharmacological functional assay in presence of casein, hGLP-1R; format: cell-based; conditions: HEK293 cells expressing hGLP-1R, 0.1% Casein, geometric mean; read-out: hGLP1R cAMP Rel EC50 nM (SEM, n)
[2] = target: T2, gastric inhibitory peptide receptor (GIPR) (Homo sapiens, UniProt P48546); assay: cAMP pharmacological functional assay in presence of casein, hGIPR; format: cell-based; conditions: HEK293 cells expressing hGIPR, 0.1% Casein, geometric mean; read-out: hGIPR cAMP Rel EC50 nM (SEM, n)
T2 sequence (P48546 22-466): T1 sequence (P48546 22-466)

human GLP-1R [3] = target: T3, human GLP-1R (Homo sapiens, UniProt P43220); assay: [125I]-GLP-1 binding (SPA), human GLP-1 receptor; design: expressed in transfected cells; crude membranes; conditions: read-out: hGLP1R Ki, (nM) (SEM, n)
Summary of the method: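 Assay buffer: HEPES 25 mM, pH 7.4, CaCl2 2.5 mM, MgCl2 1 mM, with EDTA-free protease inhibitors. Receptor came from crude cell membranes prepared by homogenization and centrifugation at 4° C. IC50s came from four-parameter fits (maximum, minimum, IC50, Hill slope) and were expressed as Ki geometric means with SEM.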

human Gcg receptor = target: T4, human Gcg receptor (Homo sapiens, UniProt P47871); assay: [125I]-Glucagon binding (SPA), human Gcg receptor; conditions: read-out: hGLcgR Ki, nM (SEM, n)
T4 construct: expressed in transfected cells; crude membranes
Summary of the method: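 Scintillation counts are taken after membranes and WGA beads incubate and settle for 12 hours at room temperature. Buffer is 25 mM HEPES, pH 7.4, with CaCl2, MgCl2, bacitracin and Tween-20. Ki values, from four-parameter IC50 fits, are geometric means over independent days.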

human GLP-1R [4] = target: T3, human GLP-1R; assay: GLP-1R HEK293 cell membrane [35S]GTPγS binding assay; format: biochemical; design: expressed in transfected cells; host or cells: HEK293 cells expressing human GLP-1R; membranes; conditions: HEK293 cell membranes expressing human GLP-1R, [35S]GTPγS binding; read-out: hGLP1R GTPgS Rel EC50 nM (SEM, n)
Description: The GLP-1 receptor is a G-protein coupled receptor that increases GTP-bound Gas upon ligand induced receptor activation. The potency of peptides to stimulate-GLP-1R induced activation of Gac is determined using preparations of purified membranes from HEK293 cells expressing the human GLP-1R. […] The test peptides are solubilized in DMSO and diluted in reaction buffer containing 5 μg of membrane in 20 mM HEPES pH 7.4, 50 mM NaCl, 5 mM MgCl2, 40 μg/ml saponin, 0.1% BSA, and […] ^35S-labeled GTPTS for 30 minutes at room temperature. Reactions are terminated by addition of 0.2% Nonidet β-40 detergent containing rabbit anti-Gas polyclonal antibody and 0.5 mg of anti-rabbit polyvinyltoluene beads. Mixtures are developed for 30 minutes, centrifuged at 80×g for 10 minutes, and counted for 1 minute/well using a MicroBeta TriLux instrument. Peptide concentration-response curves are fit to a four-parameter logistic model to calculate potency as an EC50.

T3 sequence (P43220 24-463): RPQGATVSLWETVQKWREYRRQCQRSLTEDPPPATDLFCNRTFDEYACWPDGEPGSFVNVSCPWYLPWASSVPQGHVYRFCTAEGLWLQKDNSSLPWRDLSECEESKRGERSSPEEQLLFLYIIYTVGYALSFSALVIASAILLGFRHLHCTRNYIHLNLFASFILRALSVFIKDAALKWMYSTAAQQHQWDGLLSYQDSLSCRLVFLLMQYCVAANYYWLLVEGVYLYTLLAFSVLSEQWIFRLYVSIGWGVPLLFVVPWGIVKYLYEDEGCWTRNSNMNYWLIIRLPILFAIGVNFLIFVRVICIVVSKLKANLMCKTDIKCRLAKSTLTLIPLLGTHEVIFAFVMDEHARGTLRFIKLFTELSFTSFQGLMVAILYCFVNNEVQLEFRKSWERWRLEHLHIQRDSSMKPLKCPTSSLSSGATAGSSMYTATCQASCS
human GLP-1 receptor (GLP-1R), sequence (P43220 24-463): as above
T4 sequence (P47871 26-477): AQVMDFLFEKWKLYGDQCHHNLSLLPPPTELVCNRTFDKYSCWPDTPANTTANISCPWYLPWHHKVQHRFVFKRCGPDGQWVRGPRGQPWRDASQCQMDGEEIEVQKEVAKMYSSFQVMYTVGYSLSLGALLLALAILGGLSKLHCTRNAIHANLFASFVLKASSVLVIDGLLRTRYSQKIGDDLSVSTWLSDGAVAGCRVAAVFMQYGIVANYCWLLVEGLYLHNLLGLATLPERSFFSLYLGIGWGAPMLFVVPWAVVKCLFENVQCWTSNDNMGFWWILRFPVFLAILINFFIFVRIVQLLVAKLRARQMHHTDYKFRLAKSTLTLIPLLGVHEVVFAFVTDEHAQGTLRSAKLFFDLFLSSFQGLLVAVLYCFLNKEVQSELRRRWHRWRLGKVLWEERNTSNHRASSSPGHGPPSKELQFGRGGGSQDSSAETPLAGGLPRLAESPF

Structure (SMILES) | Ki (human GIP receptor) | EC50 [1] | EC50 [2] | Ki (human GLP-1R [3]) | Ki (human Gcg receptor) | EC50 (human GLP-1R [4])
CC[C@H](C)[C@H](NC(=O)[C@H](CC(C)C)NC(=O)[C@H](Cc1ccc(O)cc1)NC(=O)[C@H](CCC(=O)O)NC(=O)[C@@H](NC(=O)[C@H](Cc1ccccc1)NC(=O)[C@H](C)NC(=O)C(C)(C)NC(=O)[C@H](CCC(N)=O)NC(=O)[C@H](C)NC(=O)[C@H](CCCCNC(=O)COCCOCCNC(=O)COCCOCCNC(=O)CC[C@H](NC(=O)CCCCCCCCCCCCCCCCC(=O)O)C(=O)O)NC(=O)[C@H](CCCCN)NC(=O)[C@H](CC(=O)O)NC(=O)[C@H](CC(C)C)NC(=O)[C@](C)(CC(C)C)NC(=O)[C@@H](NC(=O)[C@H](CO)NC(=O)[C@H](Cc1ccc(O)cc1)NC(=O)[C@H](CC(=O)O)NC(=O)[C@H](CO)NC(=O)[C@@H](NC(=O)[C@H](Cc1ccccc1)NC(=O)[C@@H](NC(=O)CNC(=O)[C@H](CCC(=O)O)NC(=O)C(C)(C)NC(=O)[C@@H](N)Cc1ccccc1)[C@@H](C)O)[C@@H](C)O)[C@@H](C)CC)[C@@H](C)CC)C(=O)N[C@@H](CCC(=O)O)C(=O)N[C@@H](C)C(=O)NCC(=O)N1CCC[C@H]1C(=O)N[C@@H](CO)C(=O)N[C@@H](CO)C(=O)NCC(=O)N[C@@H](C)C(=O)N1CCC[C@H]1C(=O)N1CCC[C@H]1C(=O)N1CCC[C@H]1C(=O)N[C@@H](CO)C(N)=O [Example 328] (H-F[Aib]EGTFTSDYSI[αMeL]LDKK([AEEA-AEEA-γGlu-C18 diacid])AQ[Aib]AFIEYLIEAGPSSGAPPPS-NH2) | 0.136 nM | 0.117 nM | 0.0965 nM | 3.98 nM | > 1450 nM | 0.481 nM
CC[C@H](C)[C@H](NC(=O)[C@H](CC(C)C)NC(=O)[C@H](Cc1ccc(O)cc1)NC(=O)[C@H](CCC(=O)O)NC(=O)[C@@H](NC(=O)[C@H](Cc1ccccc1)NC(=O)[C@H](C)NC(=O)C(C)(C)NC(=O)[C@H](CCC(N)=O)NC(=O)[C@H](C)NC(=O)[C@H](CCCCNC(=O)COCCOCCNC(=O)COCCOCCNC(=O)CC[C@H](NC(=O)CCCCCCCCCCCCCCCCCCC(=O)O)C(=O)O)NC(=O)[C@H](CCCCN)NC(=O)[C@H](CC(=O)O)NC(=O)[C@H](CC(C)C)NC(=O)[C@H](CC(C)C)NC(=O)[C@@H](NC(=O)[C@H](CO)NC(=O)[C@H](Cc1ccc(O)cc1)NC(=O)[C@H](CC(=O)O)NC(=O)[C@H](CO)NC(=O)[C@@H](NC(=O)[C@H](Cc1ccccc1)NC(=O)[C@@H](NC(=O)CNC(=O)[C@H](CCC(=O)O)NC(=O)C(C)(C)NC(=O)[C@@H](N)Cc1ccccc1)[C@@H](C)O)[C@@H](C)O)[C@@H](C)CC)[C@@H](C)CC)C(=O)N[C@@H](CCC(=O)O)C(=O)NCC(=O)NCC(=O)N1CCC[C@H]1C(=O)N[C@@H](CO)C(=O)N[C@@H](CO)C(=O)NCC(=O)N[C@@H](C)C(=O)N1CCC[C@H]1C(=O)N1CCC[C@H]1C(=O)N1CCC[C@H]1C(=O)N[C@@H](CO)C(N)=O [Example 326] (H-F[Aib]EGTFTSDYSILLDKK([AEEA-AEEA-γGlu-C20 diacid])AQ[Aib]AFIEYLIEGGPSSGAPPPS-NH2) | 0.251 nM | 0.0369 nM | 0.0754 nM | 2.92 nM | 207 nM | 0.663 nM
CC[C@H](C)[C@H](NC(=O)[C@H](CC(C)C)NC(=O)[C@H](Cc1ccc(O)cc1)NC(=O)[C@H](CCC(=O)O)NC(=O)[C@@H](NC(=O)[C@H](Cc1ccccc1)NC(=O)[C@H](C)NC(=O)C(C)(C)NC(=O)[C@H](CCC(N)=O)NC(=O)[C@H](C)NC(=O)[C@H](CCCCNC(=O)COCCOCCNC(=O)COCCOCCNC(=O)CC[C@H](NC(=O)CCCCCCCCCCCCCCCCC(=O)O)C(=O)O)NC(=O)[C@H](CCCCN)NC(=O)[C@H](CC(=O)O)NC(=O)[C@H](CC(C)C)NC(=O)[C@H](CC(C)C)NC(=O)[C@@H](NC(=O)[C@H](CO)NC(=O)[C@H](Cc1ccc(O)cc1)NC(=O)[C@H](CC(=O)O)NC(=O)[C@H](CO)NC(=O)[C@@H](NC(=O)[C@H](Cc1ccccc1)NC(=O)[C@@H](NC(=O)CNC(=O)[C@H](CCC(=O)O)NC(=O)C(C)(C)NC(=O)[C@@H](N)Cc1ccc(O)cc1)[C@@H](C)O)[C@@H](C)O)[C@@H](C)CC)C(C)C)C(=O)N[C@@H](CCC(=O)O)C(=O)NCC(=O)NCC(=O)N1CCC[C@H]1C(=O)N[C@@H](CO)C(=O)N[C@@H](CO)C(=O)NCC(N)=O [Example 298] (H-Y[Aib]EGTFTSDYSILLDKK([AEEA-AEEA-γGlu-C18 diacid])AQ[Aib]AFVEYLIEGGPSSG-NH2; N-terminus assumed) | 0.0578 nM | 0.0957 nM | 0.043 nM | 3.03 nM | > 1370 nM | 1.03 nM

Results, then the compound that gave them:

Ki (human GIP receptor) | EC50 [1] | EC50 [2] | Ki (human GLP-1R [3]) | Ki (human Gcg receptor) | EC50 (human GLP-1R [4]) | Structure (SMILES)
0.0215 nM | 0.172 nM | 0.0948 nM | 2.63 nM | 253 nM | 0.536 nM | CC[C@H](C)[C@H](NC(=O)[C@H](CC(C)C)NC(=O)[C@H](Cc1ccc(O)cc1)NC(=O)[C@H](CCC(=O)O)NC(=O)[C@@H](NC(=O)[C@H](Cc1ccccc1)NC(=O)[C@H](C)NC(=O)C(C)(C)NC(=O)[C@H](CCC(N)=O)NC(=O)[C@H](C)NC(=O)[C@H](CCCCNC(=O)COCCOCCNC(=O)COCCOCCNC(=O)CC[C@H](NC(=O)CCCCCCCCCCCCCCCCCCC(=O)O)C(=O)O)NC(=O)[C@H](CCCCN)NC(=O)[C@H](CC(=O)O)NC(=O)[C@H](CC(C)C)NC(=O)[C@H](CC(C)C)NC(=O)[C@@H](NC(=O)[C@H](CO)NC(=O)[C@H](Cc1ccc(O)cc1)NC(=O)[C@H](CC(=O)O)NC(=O)[C@H](CO)NC(=O)[C@@H](NC(=O)[C@H](Cc1ccccc1)NC(=O)[C@@H](NC(=O)CNC(=O)[C@H](CCC(=O)O)NC(=O)C(C)(C)NC(=O)[C@@H](N)Cc1ccc(O)cc1)[C@@H](C)O)[C@@H](C)O)[C@@H](C)CC)[C@@H](C)CC)C(=O)N[C@@H](C)C(=O)NCC(=O)NCC(=O)N1CCC[C@H]1C(=O)N[C@@H](CO)C(=O)N[C@@H](CO)C(=O)NCC(N)=O [Example 317] (H-Y[Aib]EGTFTSDYSILLDKK([AEEA-AEEA-γGlu-C20 diacid])AQ[Aib]AFIEYLIAGGPSSG-NH2; N-terminus assumed)
0.025 nM | 0.107 nM | 0.0225 nM | 0.83 nM | 352 nM | 0.389 nM | CC[C@H](C)[C@H](NC(=O)[C@H](CC(C)C)NC(=O)[C@H](Cc1ccc(O)cc1)NC(=O)[C@H](CCC(=O)O)NC(=O)[C@@H](NC(=O)[C@H](Cc1ccccc1)NC(=O)[C@H](C)NC(=O)C(C)(C)NC(=O)[C@H](CCC(N)=O)NC(=O)[C@H](C)NC(=O)[C@H](CCCCNC(=O)COCCOCCNC(=O)COCCOCCNC(=O)CC[C@H](NC(=O)CCCCCCCCCCCCCCCCC(=O)O)C(=O)O)NC(=O)[C@H](CCCCN)NC(=O)[C@H](CC(=O)O)NC(=O)[C@H](CC(C)C)NC(=O)[C@](C)(CC(C)C)NC(=O)[C@@H](NC(=O)[C@H](CO)NC(=O)[C@H](Cc1ccc(O)cc1)NC(=O)[C@H](CC(=O)O)NC(=O)[C@H](CO)NC(=O)[C@@H](NC(=O)[C@H](Cc1ccccc1)NC(=O)[C@@H](NC(=O)CNC(=O)[C@H](CCC(=O)O)NC(=O)C(C)(C)NC(=O)[C@@H](N)Cc1ccc(O)cc1)[C@@H](C)O)[C@@H](C)O)[C@@H](C)CC)[C@@H](C)CC)C(=O)N[C@@H](C)C(=O)NCC(=O)NCC(=O)N1CCC[C@H]1C(=O)N[C@@H](CO)C(=O)N[C@@H](CO)C(=O)NCC(N)=O [Example 305] (H-Y[Aib]EGTFTSDYSI[αMeL]LDKK([AEEA-AEEA-γGlu-C18 diacid])AQ[Aib]AFIEYLIAGGPSSG-NH2)
